Target: T1, MerTK (Homo sapiens, UniProt Q12866)
T1 construct: endogenous in cells; host or cells: Jurkat cells
T1 sequence (Q12866 21-999): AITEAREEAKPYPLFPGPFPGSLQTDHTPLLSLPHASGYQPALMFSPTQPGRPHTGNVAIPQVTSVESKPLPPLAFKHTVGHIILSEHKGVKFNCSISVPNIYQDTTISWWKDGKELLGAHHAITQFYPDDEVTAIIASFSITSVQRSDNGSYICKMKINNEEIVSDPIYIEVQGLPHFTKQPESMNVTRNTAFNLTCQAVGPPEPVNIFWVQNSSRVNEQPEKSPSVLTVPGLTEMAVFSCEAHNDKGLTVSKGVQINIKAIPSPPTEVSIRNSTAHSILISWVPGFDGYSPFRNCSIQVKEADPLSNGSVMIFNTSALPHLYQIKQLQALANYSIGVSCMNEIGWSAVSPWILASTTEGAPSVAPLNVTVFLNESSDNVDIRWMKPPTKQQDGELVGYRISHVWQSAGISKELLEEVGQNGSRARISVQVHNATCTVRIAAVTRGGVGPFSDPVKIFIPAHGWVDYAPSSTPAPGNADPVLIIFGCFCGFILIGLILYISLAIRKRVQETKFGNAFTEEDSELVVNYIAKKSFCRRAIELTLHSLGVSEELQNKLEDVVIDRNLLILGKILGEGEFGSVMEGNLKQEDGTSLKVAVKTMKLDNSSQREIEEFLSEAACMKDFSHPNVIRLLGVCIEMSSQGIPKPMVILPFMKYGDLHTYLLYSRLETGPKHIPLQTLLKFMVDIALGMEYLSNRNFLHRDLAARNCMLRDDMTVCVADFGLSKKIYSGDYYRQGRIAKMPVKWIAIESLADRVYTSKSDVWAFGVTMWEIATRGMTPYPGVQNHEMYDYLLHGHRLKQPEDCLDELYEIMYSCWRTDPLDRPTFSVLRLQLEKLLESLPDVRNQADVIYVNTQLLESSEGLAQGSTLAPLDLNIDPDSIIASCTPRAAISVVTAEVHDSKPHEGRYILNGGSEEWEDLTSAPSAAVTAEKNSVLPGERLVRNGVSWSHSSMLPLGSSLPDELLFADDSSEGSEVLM
Assay: MerTk degradation in Jurkat cells (Western blot)
Type: cell-based
Details: Jurkat, 4 h, 0.001-1 μM, 4 hour-incubation at 37° C., read-out: Jurkat Max % MerTK Degradation
Method in brief: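 MerTK degradation was read by near-infrared Western blot, normalized to actin, in BCA-quantified lysates of Jurkat cells exposed to 0.001-1 μM compound for 4 h at 37 °C.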

| SMILES | Dmax |
| --- | --- |
| O=C1CC[C@H](n2c3cc(CCCOCCOCCN4CCN(Cc5ccc(-c6cn([C@H]7CC[C@H](O)CC7)c7nc(NCCC(F)(F)F)ncc67)cc5)CC4)ccc3c3cccnc32)C(=O)N1 [I-127, 3-(7-[3-[2-(2-[4-[(4-[7-[trans-4-hydroxycyclohexy1]-2-[(3,3,3-trifluoropropyl)amino]-7H-pyrrolo[2,3-d]pyrimidin-5-yl]phenyl)methyl]piperazin-1-yl]ethoxy)ethoxy]propyl]-9H-pyrido[2,3-b]indol-9-yl)piperidine-2,6-dione] | 20 to 50% |
| O=C1CC[C@H](n2c3ccc(NCCOCCOCCN4CCN(Cc5ccc(-c6cn([C@H]7CC[C@H](O)CC7)c7nc(NCCC(F)(F)F)ncc67)cc5)CC4)cc3c3cccnc32)C(=O)N1 [I-133, 3-[6-([2-[2-(2-[4-[(4-[7-[trans-4-hydroxycyclohexyl]-2-[(3,3,3-trifluoropropyl)amino]pyrrolo[2,3-d]pyrimidin-5-yl]phenyl)methyl]piperazin-1-yl]ethoxy)ethoxy]ethyl]amino)pyrido[2,3-b]indol-9-yl]piperidine-2,6-dione; formic acid] | > 50% |
| O=C1CC[C@H](n2c3cccc(CCCOCCOCCN4CCN(Cc5ccc(-c6cn([C@H]7CC[C@H](O)CC7)c7nc(NCCC(F)(F)F)ncc67)cc5)CC4)c3c3cccnc32)C(=O)N1 [I-134, 3-(5-[3-[2-(2-[4-[(4-[7-[trans-4-hydroxycyclohexy1]-2-[(3,3,3-trifluoropropyl)amino]pyrrolo[2,3-d]pyrimidin-5-yl]phenyl)methyl]piperazin-1-yl]ethoxy)ethoxy]propyl]pyrido[2,3-b]indol-9-y1)piperidine-2,6-dione] | > 50% |
| Cn1c(=O)n([C@H]2CCC(=O)NC2=O)c2cccc(CCCOCCOCCN3CCN(Cc4ccc(-c5cn([C@H]6CC[C@H](O)CC6)c6nc(NCCC(F)(F)F)ncc56)cc4)CC3)c21 [I-135, 3-(3-methyl-2-oxo-4-[3-[2-(2-[4-[(4-[7-[trans-4-hydroxycyclohexyl]-2-[(3,3,3-trifluoropropyl)amino]pyrrolo[2,3-d]pyrimidin-5-yl]phenyl)methyl]piperazin-1-yl]ethoxy)ethoxy]propyl]-1,3-benzodiazol-1-y1)piperidine-2,6-dione] | > 50% |
| Cn1c(=O)n([C@H]2CCC(=O)NC2=O)c2cccc(CCCOCCCN3CCN(Cc4ccc(-c5cn([C@H]6CC[C@H](O)CC6)c6nc(NCCC(F)(F)F)ncc56)cc4)CC3)c21 [I-138, 3-[3-methyl-2-oxo-4-[3-(3-[4-[(4-[7-[trans-4-hydroxycyclohexy1]-2-[(3,3,3-trifluoropropyl)amino]pyrrolo[2,3-d]pyrimidin-5-yl]phenyl)methyl]piperazin-1-yl]propoxy)propyl]-1,3-benzodiazol-1-yl]piperidine-2,6-dione] | > 50% |
| Cn1c(=O)n([C@H]2CCC(=O)NC2=O)c2ccc(CCCOCCCN3CCN(Cc4cccc(-c5cn([C@H]6CC[C@H](O)CC6)c6nc(NCCC(F)(F)F)ncc56)c4)CC3)cc21 [I-139, 3-[3-methyl-2-oxo-5-[3-(3-[4-[(3-[7-[trans-4-hydroxycyclohexyl]-2-[(3,3,3-trifluoropropyl)amino]pyrrolo[2,3-d]pyrimidin-5-yl]phenyl)methyl]piperazin-1-yl]propoxy)propy1]-1,3-benzodiazol-1-yl]piperidine-2,6-dione] | > 50% |
| Cn1c(=O)n([C@H]2CCC(=O)NC2=O)c2ccc(CCCOCCCN3CCN(Cc4cn([C@H]5CC[C@H](O)CC5)c5nc(NCCC(F)(F)F)ncc45)CC3)cc21 [I-140, 3-[3-methyl-2-oxo-5-(3-[3-[4-([7-[trans-4-hydroxycyclohexy1]-2-[(3,3,3-trifluoropropyl)amino]pyrrolo[2,3-d]pyrimidin-5-yl]methyl)piperazin-1-yl]propoxy]propyl)-1,3-benzodiazol-1-yl]piperidine-2,6-dione; formic acid] | 20 to 50% |
| Cn1c(=O)n([C@H]2CCC(=O)NC2=O)c2ccc(CCCOCCCN3CCN(Cc4ccc(-c5cn([C@H]6CC[C@@](C)(O)CC6)c6nc(NCCC(F)(F)F)ncc56)cc4)CC3)cc21 [I-141, 3-[3-methyl-2-oxo-5-[3-(3-[4-[(4-[7-[cis-4-hydroxy-4-methylcyclohexyl]-2-[(3,3,3-trifluoropropyl)amino]pyrrolo[2,3-d]pyrimidin-5-y1]phenyl)methyl]piperazin-1-yl]propoxy)propyl]-1,3-benzodiazol-1-yl]piperidine-2,6-dione] | > 50% |

The remaining lines, values ahead:

| Dmax | SMILES |
| --- | --- |
| 20 to 50% | Cn1c(=O)n([C@H]2CCC(=O)NC2=O)c2ccc(CCN3CC(OCCN4CCN(Cc5ccc(-c6cn([C@H]7CC[C@H](O)CC7)c7nc(NCCC(F)(F)F)ncc67)cc5)CC4)C3)cc21 [I-128, 3-(3-methyl-2-oxo-5-[2-[3-(2-[4-[(4-[7-[trans-4-hydroxycyclohexyl]-2-[(3,3,3-trifluoropropyl)amino]pyrrolo[2,3-d]pyrimidin-5-yl]phenyl)methyl]piperazin-1-yl]ethoxy)azetidin-1-yl]ethyl]-1,3-benzodiazol-1-y1)piperidine-2,6-dione] |
| > 50% | Cn1c(=O)n([C@H]2CCC(=O)NC2=O)c2ccc(CCOCCN3CC(N4CCN(Cc5ccc(-c6cn([C@H]7CC[C@H](O)CC7)c7nc(NCCC(F)(F)F)ncc67)cc5)CC4)C3)cc21 [I-129, 3-(3-methyl-2-oxo-5-[2-[2-(3-[4-[(4-[7-[trans-4-hydroxycyclohexy1]-2-[(3,3,3-trifluoropropyl)amino]-7H-pyrrolo[2,3-d]pyrimidin-5-y1]phenyl)methyl]piperazin-1-yl]azetidin-1-yl)ethoxy]ethyl]-2,3-dihydro-1H-1,3-benzodiazol-1-y1)piperidine-2,6-dione; formic acid] |
| > 50% | Cn1c(=O)n([C@H]2CCC(=O)NC2=O)c2ccc(CCOCCN3CCC(N4CCN(Cc5ccc(-c6cn([C@H]7CC[C@H](O)CC7)c7nc(NCCC(F)(F)F)ncc67)cc5)CC4)CC3)cc21 [I-130, 3-(3-methyl-2-oxo-5-[2-[2-(4-[4-[(4-[7-[trans-4-hydroxycyclohexyl]-2-[(3,3,3-trifluoropropyl)amino]-7H-pyrrolo[2,3-d]pyrimidin-5-yl]phenyl)methyl]piperazin-1-yl]piperidin-1-y1)ethoxy]ethyl]-2,3-dihydro-1H-1,3-benzodiazol-1-y1)piperidine-2,6-dione] |
| > 50% | Cn1c(=O)n(C2CCC(=O)NC2=O)c2ccc(CCOCCN3CCCC(N4CCN(Cc5ccc(-c6cn([C@H]7CC[C@H](O)CC7)c7nc(NCCC(F)(F)F)ncc67)cc5)CC4)C3)cc21 (stereo partly drawn) [I-131, 3-(3-methyl-2-oxo-5-[2-[2-(3-[4-[(4-[7-[trans-4-hydroxycyclohexyl]-2-[(3,3,3-trifluoropropyl)amino]-7H-pyrrolo[2,3-d]pyrimidin-5-yl]phenyl)methyl]piperazin-1-y1]piperidin-1-yl)ethoxy]ethyl]-2,3-dihydro-1H-1,3-benzodiazol-1-y1)piperidine-2,6-dione; formic acid] |
| > 50% | Cn1c(=O)n(C2CCC(=O)NC2=O)c2ccc(CCOCCN3CCC(N4CCN(Cc5ccc(-c6cn([C@H]7CC[C@H](O)CC7)c7nc(NCCC(F)(F)F)ncc67)cc5)CC4)C3)cc21 (stereo partly drawn) [I-132, 3-(3-methyl-2-oxo-5-[2-[2-(3-[4-[(4-[7-[trans-4-hydroxycyclohexyl]-2-[(3,3,3-trifluoropropyl)amino]-7H-pyrrolo[2,3-d]pyrimidin-5-yl]phenyl)methyl]piperazin-1-yl]pyrrolidin-1-yl)ethoxy]ethyl]-2,3-dihydro-1H-1,3-benzodiazol-1-yl)piperidine-2,6-dione] |
| > 50% | Cn1c(=O)n([C@H]2CCC(=O)NC2=O)c2ccc(CCCN3CC(C4CCN(Cc5ccc(-c6cn([C@H]7CC[C@H](O)CC7)c7nc(NCCC(F)(F)F)ncc67)cc5)CC4)C3)cc21 [I-136, 3-[3-methyl-2-oxo-5-[3-(3-[1-[(4-[7-[trans-4-hydroxycyclohexyl]-2-[(3,3,3-trifluoropropyl)amino]pyrrolo[2,3-d]pyrimidin-5-yl]phenyl)methyl]piperidin-4-yl]azetidin-1-yl)propyl]-1,3-benzodiazol-1-y1]piperidine-2,6-dione; tris(formic acid)] |
| > 50% | Cn1c(=O)n([C@H]2CCC(=O)NC2=O)c2ccc(CCCN3CCC(C4CCN(Cc5ccc(-c6cn([C@H]7CC[C@H](O)CC7)c7nc(NCCC(F)(F)F)ncc67)cc5)CC4)CC3)cc21 [I-137, 3-[3-methyl-2-oxo-5-(3-[1-[(4-[7-[trans-4-hydroxycyclohexyl]-2-[(3,3,3-trifluoropropyl)amino]pyrrolo[2,3-d]pyrimidin-5-yl]phenyl)methyl]-[4,4-bipiperidin]-1-y1]propyl)-1,3-benzodiazol-1-yl]piperidine-2,6-dione] |
